From patent publication US6720346B2, “Thiazole benzamide derivatives and pharmaceutical compositions for inhibiting cell proliferation” (Agouron Pharmaceuticals, Inc., priority 2001, dated 2004)
Structures can show the parent of a compound that is named as a salt.

Experiments:
[1] = molecular target: T1, human CDK1 (cdc2)/cyclin B (Homo sapiens, UniProt P06493); test: Inhibition of CDK1 (cdc2)/cyclin B histone H1 kinase activity; assay type: biochemical; conditions: histone H1 substrate
T1 construct: purchased New England Biolabs (Beverly, Mass.)
Protocol: Cyclin-dependent kinase activity was measured by quantifying the enzyme-catalyzed, time-dependent incorporation of radioactive phosphate from [^32P]ATP or [^33P]ATP into a protein substrate. Unless noted otherwise, assays were performed in 96-well plates in a total volume of 50 μL, in the presence of 10 mM HEPES (N-[2-hydroxyethyl]piperazine-N′-[2-ethanesulfonic acid]) (pH 7.4), 10 mM MgCl2, 25 μM adenosine triphosphate (ATP), 1 mg/mL ovalbumin, 5 μg/mL leupeptin, 1 mM dithiothreitol, 10 mM β-glycerophosphate, 0.1 mM sodium vanadate, 1 mM sodium fluoride, 2.5 mM ethylene glycol-bis(β-aminoethyl ether)-N,N,N′N′-tetraacetic acid (EGTA), 2% (v/v) dimethylsulfoxide, and 0.03-0.4 μCi [^32/33P]ATP per reaction. Reactions were initiated with enzyme, incubated at 30° C., and terminated after 20 minutes by the addition of ethylenediaminetetraacetic acid (EDTA) to 250 mM. The phosphorylated substrate was then captured on a nitrocellulose or phosphocellulose membrane using a 96-well filtration manifold, and unincorporated radioactivity was removed by repeated washing with 0.85% phosphoric acid. Radioactivity was quantified by exposing the dried membranes to a phosphorimager.
Compounds from combinatorial libraries were screened from 96-well plates for % inhibition of CDK activity at 30 nM theoretical compound concentration. Inhibition was measured relative to control wells that contained all reaction components including 2% (v/v) DMSO but no compound, after subtraction of background radioactivity measured in the absence of enzyme. Apparent Ki values of discrete compounds were measured by assaying enzyme activity in the presence of different inhibitor compound concentrations and subtracting the background radioactivity measured in the absence of enzyme. The kinetic parameters (kcat, Km for ATP) were measured for each enzyme under the usual assay conditions by determining the dependence of initial rates on ATP concentration. Inhibition data were fit to an equation for competitive inhibition using Kaleidagraph (Synergy Software), or were fit to an equation for competitive tight-binding inhibition using the software KineTic (BioKin, Ltd.).
The complex of human CDK1 (cdc2) and cyclin B was purchased from New England Biolabs (Beverly, Mass.). Alternatively, a CDK1/glutathione-S-transferase-cyclin B1 complex was purified using glutathione affinity chromatography from insect cells that had been co-infected with the corresponding baculovirus expression vectors. The assay was executed as described above at 30° C. using 2.5 units of cdc2/cyclin B, 10 μg Histone H1 protein, and 0.1-0.3 μCi [^32/33P]ATP per assay. Phosphorylated histone substrate was captured by microfiltration on a phosphocellulose P81 membrane and quantified using a phosphorimager as described above. Ki values were measured using the described curve-fitting programs.

HCT-116 cell line = test: Inhibition of cell growth, MTT tetrazolium salt assay; assay type: cell-based; conditions: Homo sapiens, HCT-116, 120 h, MTT, three to five days; for IC90: 90% inhibition of growth
Method in brief: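 Growth inhibition was read as MTT-formazan absorbance at 540 nm, after 4 h with 0.2 mg/mL MTT. Before that, HCT-116 cells had been exposed 3–5 days at 37 °C to compounds in 0.5% (v/v) DMSO, added 4 h after plating. 50% and 90% inhibitory concentrations were taken from semi-log concentration–inhibition plots versus vehicle controls.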

[2] = molecular target: T2, phosphorylated LCK kinase (Homo sapiens, UniProt P06239, C224D/P223M); test: Inhibition of phosphorylated LCK tyrosine kinase activity (coupled spectrophotometric assay); assay type: biochemical; conditions: read-out: P-LCK % Inhibition at 1 μM
T2 construct: starting from amino acid 223 to the end of the protein at amino acid 509; made in house; host or cells: insect cells
Protocol: Cloning, expression and purification of the cytosolic domain of FGFR1 tyrosine kinase (amino acids 456-766) containing three amino acid substitutions (L457V, C488A, and C584S) were conducted as previously described (Mohammadi, M., Schiessinger, J., & Hubbard, S. R. Cell, 86, (1996) 577-587). This domain was expressed in Sf9 insect cells using a baculovirus expression vector, and protein was purified using conventional techniques. The LCK tyrosine kinase was expressed in insect cells as an N-terminal deletion starting from amino acid 223 to the end of the protein at amino acid 509. The N-terminus of the protein also had two amino acid substitutions, P223M and C224D. Kinases were purified using conventional chromatographic methods.
Tyrosine kinase activity was measured using a coupled, continuous spectrophotometric assay, in which production of phosphorylated poly(Glu,Tyr; 4:1) substrate and ADP is coupled to the pyruvate kinase-catalyzed transfer of a phosphate from phosphoenolpyruvate to ADP, with generation of pyruvate and regeneration of ATP. Pyruvate production is in turn coupled to the lactate dehydrogenase-catalyzed reduction of pyruvate to form lactate, with concomitant conversion of NADH to NAD^+. Loss of NADH is monitored by measuring absorbance at 340 nm (see e.g., Technikova-Dobrova et al., “Spectrophotometric Determination of Functional Characteristics of Protein Kinases with Coupled Enzymatic Assay,” FEBS Letters, 292 (1991), pp. 69-72). Enzyme activity was measured in the presence of 200 mM HEPES (pH 7.5), 2 mM phosphoenolpyruvate, 0.3 mM NADH, 20 mM MgCl2, 100 μM ATP, 5 mM DTT, 5.1 or 25 mM poly (Glu,Tyr) 4:1 for P-FGF or P-LCK assays, respectively, and 15 units/mL each of pyruvate kinase and lactate dehydrogenase. Phosphorylated FGF receptor kinase was present at 100 nM and phosphorylated LCK kinase was present at 50 nM. Assays were performed under initial rate conditions at 37° C., and rates were corrected for any background rate measured in the absence of enzyme. Percent inhibition was calculated relative to control enzyme assayed in the presence of 2% (v/v) DMSO.

T2 sequence (P06239 223-509 P223M/C224D): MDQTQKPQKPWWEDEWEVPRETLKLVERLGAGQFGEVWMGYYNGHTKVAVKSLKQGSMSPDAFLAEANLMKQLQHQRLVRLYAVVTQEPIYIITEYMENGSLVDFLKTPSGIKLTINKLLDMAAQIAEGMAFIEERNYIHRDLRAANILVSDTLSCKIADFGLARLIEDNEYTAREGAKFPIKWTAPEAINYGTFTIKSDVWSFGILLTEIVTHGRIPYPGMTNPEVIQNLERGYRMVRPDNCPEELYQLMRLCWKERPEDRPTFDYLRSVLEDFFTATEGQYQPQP
T1 sequence (P06493 whole entry): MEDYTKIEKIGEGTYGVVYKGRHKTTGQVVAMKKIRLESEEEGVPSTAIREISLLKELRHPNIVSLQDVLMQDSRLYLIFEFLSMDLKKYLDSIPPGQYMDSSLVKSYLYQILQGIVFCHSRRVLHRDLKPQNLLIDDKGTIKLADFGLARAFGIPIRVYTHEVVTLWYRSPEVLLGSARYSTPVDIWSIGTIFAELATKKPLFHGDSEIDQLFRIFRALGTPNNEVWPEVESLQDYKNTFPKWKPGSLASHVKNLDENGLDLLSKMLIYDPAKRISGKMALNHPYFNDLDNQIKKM
T1 sequence (P14635 whole entry partner): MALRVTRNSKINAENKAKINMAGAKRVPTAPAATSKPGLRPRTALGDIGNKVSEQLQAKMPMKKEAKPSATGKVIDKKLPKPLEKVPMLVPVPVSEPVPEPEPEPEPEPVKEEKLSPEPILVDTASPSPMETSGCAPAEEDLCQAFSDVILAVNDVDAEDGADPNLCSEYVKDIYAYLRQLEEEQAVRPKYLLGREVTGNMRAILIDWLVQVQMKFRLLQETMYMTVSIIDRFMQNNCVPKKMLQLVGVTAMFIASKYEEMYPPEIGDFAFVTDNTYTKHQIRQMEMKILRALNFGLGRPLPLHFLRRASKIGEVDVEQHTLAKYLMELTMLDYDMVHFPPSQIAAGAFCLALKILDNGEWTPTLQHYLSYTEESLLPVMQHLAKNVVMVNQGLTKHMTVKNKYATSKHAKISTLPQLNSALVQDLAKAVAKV

SMILES	Ki [1]	IC50 (HCT-116 cell line)	inhibition at 1 µM [2]	IC90 (HCT-116 cell line)
Nc1nc(Nc2ccc(C(=O)NCCc3ccc(O)cc3)cc2)sc1C(=O)c1c(F)cccc1F [Example A14, 4-[4-Amino-5-(2,6-difluoro-benzoyl)-thiazol-2-ylamino]-N-[2-(4-hydroxy-phenyl)-ethyl]-benzamide]	42 nM	42 nM	0%	–
Nc1nc(Nc2ccc(C(=O)NCCN3CCCCC3)cc2)sc1C(=O)c1c(F)cccc1F [Example A15, 4-[4-Amino-5-(2,6-difluoro-benzoyl)-thiazol-2-ylamino]-N-(2-piperidin-1-yl-ethyl)-benzamide]	68 nM	90 nM	0%	–
CC(CN(C)C)NC(=O)c1ccc(Nc2nc(N)c(C(=O)c3c(F)cccc3F)s2)cc1 (centres unmarked) [Example A20, 4-[4-Amino-5-(2,6-difluoro-benzoyl)-thiazol-2-ylamino]-N-(2-dimethylamino-1RS-methyl-ethyl)-benzamide Hydrochloride Salt]	150 nM	76 nM	0%	180 nM
Nc1nc(Nc2ccc(C(=O)Nc3ccc(N4CCOCC4)cc3)cc2)sc1C(=O)c1c(F)cccc1F [Example A21]	120 nM	100 nM	0%	–
CN1CCC[C@H]1CNC(=O)c1ccc(Nc2nc(N)c(C(=O)c3c(F)cccc3F)s2)cc1 [Example A31, 4-[4-Amino-5-(2,6-difluoro-benzoyl)-thiazol-2-ylamino]-N-(1-methyl-pyrrolidin-2S-yl-methyl)-benzamide Dihydrochloride]	82 nM	30 nM	0%	70 nM
